# Results taken from patent US20210212946A1, “SOLID SELF-EMULSIFYING CANNABINOID COMPOSITIONS” (ICDPHARMA LTD., priority 2018, published 2021).
# Tests used:
# human lung tumors = human lung tumors implanted into rats and mice; cited from earlier work
# [1] = Oral absorption of CBD in rats; format: in vivo, Sprague drawly rats; details: gavage to the stomach, 12 mg/kg, plasma CBD by LC-MS
# Method: A tablet of composition of 5A was diluted with water of about 40° C. before administration to the rats to obtain CBD concentration of 12 mg/ml and to obtain the cannabinoid oil-in-water emulsion. The emulsion was administered in gavage to the stomach of Sprague drawly rats weighing 220 gr to 250 gr at 12 mg/kg. Blood sample was obtained at various time points after the oral administration and plasma separated. The CBD concentration in the plasma was tested by LC-MS and the area under the curve calculate. Group one was administered with 12 mg/kg of pure CBD dissolved in “solvent” propylene glycol:ethanol 1:1 solution. Group two received the test formulation.
Compound,reduction in tumor mass and volume (human lung tumors) [%],reduction of cancerous lesions in the lungs (human lung tumors),"Cmax ([1]; Sprague-Dawley, rat, po) [ng/mL]",AUC (Area Under the Curve of CBD in rats' plasma) [1] [ng/mL/h]
"CCCCCc1cc(O)c2c(c1)OC(C)(C)[C@@H]1CCC(C)=C[C@@H]21 [THC, tetrahydrocannabinol]",≤ 50,around 60%,–,–
"C=C(C)[C@@H]1CCC(C)=C[C@H]1c1c(O)cc(CCCCC)cc1O [CBD, cannabidiol]",–,–,38,90 ± 12
